Some test systems named below: A498 renal; COLO 205 colon; HOP-92 NSCLC; M14 melanoma; MCF7 breast; OVCAR-5 ovarian; SK-MEL-28 melanoma; SK-MEL-5 melanoma; SNB-19 CNS; U251 CNS.
What all share (test): NCI-60 cell line screen, 48 h

“And” between values parts separate entries of the source, which are not always exact repeats. Equal values may be shown once.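 In this assay, cells in 96-well plates receive the compound at five concentrations for 48 hours. Endpoints are linearly interpolated between the surrounding concentrations. Abbreviation: GI50, concentration required for 50% inhibition of growth. TGI is the concentration that stops growth completely.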

Regarding `C=C(CN1CCN(c2cccc(F)c2)CC1)c1ccc(C(=O)Nc2ccccc2N)cc1`, the GI50 in the assay with A498 renal is 2.12 µM; in the assay on COLO 205 colon, 2.93 µM; in the assay with HOP-92 NSCLC it was 0.6 µM; in the assay on M14 melanoma, 0.311 µM; in the assay on MCF7 breast it was 0.691 µM; in the assay on OVCAR-5 ovarian it was 2.61 µM. Besides, the GI50 with SK-MEL-28 melanoma is 0.676 µM; in the assay with SK-MEL-5 melanoma, 1.91 µM; with SNB-19 CNS, 1.95 µM; in the assay on U251 CNS, 1.41 µM. The TGI in the assay on A498 renal is 9.08 µM; in the assay on COLO 205 colon, 9.09 µM; with HOP-92 NSCLC, 6.97 µM; with M14 melanoma, 2.38 µM; with MCF7 breast, above 100 µM; in the assay on OVCAR-5 ovarian, above 100 µM. Also, the TGI in the assay on SK-MEL-28 melanoma is 38.6 µM; with SK-MEL-5 melanoma, 17.2 µM; with SNB-19 CNS, above 100 µM; in the assay on U251 CNS, 43 µM.
With `CC(=O)OCC1OC(n2c(-c3ccccc3)c(C)c(C)c(C#N)c2=S)C(OC(C)=O)C(OC(C)=O)C1OC(C)=O` (stereo unspecified), the TGI is above 100 µM with A498 renal; above 100 µM in the assay with COLO 205 colon; 24 µM in the assay with HOP-92 NSCLC; above 100 µM in the assay on M14 melanoma; above 100 µM in the assay on MCF7 breast; above 100 µM in the assay with OVCAR-5 ovarian. Besides, the TGI with SK-MEL-28 melanoma is above 100 µM; in the assay on SK-MEL-5 melanoma, above 100 µM; with SNB-19 CNS, above 100 µM; in the assay with U251 CNS, 34.6 µM. The GI50 with HOP-92 NSCLC is 0.0211 µM; in the assay with M14 melanoma, 15.4 µM and 35 µM; with SNB-19 CNS it was 17.9 µM and 44.9 µM.
Turning to `CC[C@@]1(O)C(=O)OCc2c1cc1n(c2=O)Cc2c-1nc1ccccc1c2/C=N/OC(C)(C)C`, the GI50 in the assay with A498 renal is below 0.0169 µM; with COLO 205 colon it was 0.0483 µM; with HOP-92 NSCLC, below 0.0149 µM; in the assay with M14 melanoma it was below 0.01 µM; with MCF7 breast, below 0.01 µM; in the assay on OVCAR-5 ovarian, 0.113 µM. Also, the GI50 is 0.372 µM in the assay on SK-MEL-28 melanoma, below 0.01 µM in the assay with SK-MEL-5 melanoma, below 0.01 µM in the assay on SNB-19 CNS and below 0.01 µM in the assay with U251 CNS. Moreover, the TGI was 0.169 µM in the assay with A498 renal; 2.05 µM in the assay with COLO 205 colon; 3.4 µM in the assay on HOP-92 NSCLC; 0.226 µM with M14 melanoma; 5.69 µM with MCF7 breast; 5.47 µM in the assay with OVCAR-5 ovarian. Besides, the TGI in the assay with SK-MEL-28 melanoma worked out at 9.07 µM; in the assay on SK-MEL-5 melanoma it was 0.102 µM; in the assay with SNB-19 CNS, 10.9 µM; with U251 CNS, 0.812 µM.
For the compound `CCN(CC)CC(O)C1CCC(c2ccccc2)CC1` (stereo unspecified), the TGI is 42.9 µM with A498 renal; 29.2 µM in the assay with COLO 205 colon; 86.9 µM in the assay on HOP-92 NSCLC; 80.4 µM in the assay on M14 melanoma; 84.6 µM with MCF7 breast; 88.9 µM in the assay on OVCAR-5 ovarian. Moreover, the TGI in the assay on SK-MEL-28 melanoma was 48.9 µM; in the assay on SK-MEL-5 melanoma, 30.4 µM; in the assay on SNB-19 CNS, above 100 µM; with U251 CNS, 62.7 µM.
For `O=c1cccc(C#CC#C/C=C/CO)o1`, the GI50 in the assay with A498 renal is 7.57 µM; with COLO 205 colon, 2.02 µM; in the assay on HOP-92 NSCLC it was 2.74 µM; with M14 melanoma, 4.12 µM; in the assay with MCF7 breast, 2.23 µM; in the assay on OVCAR-5 ovarian, 2.09 µM. The GI50 in the assay on SK-MEL-28 melanoma was 2.75 µM; in the assay on SK-MEL-5 melanoma, 2.48 µM; with SNB-19 CNS, 3.06 µM; in the assay on U251 CNS, 1.89 µM. For the same compound, the TGI with A498 renal was found to be 22.7 µM; in the assay with COLO 205 colon it was 3.56 µM; in the assay on HOP-92 NSCLC it was 5.85 µM; in the assay on OVCAR-5 ovarian it was 4.34 µM; with SK-MEL-28 melanoma, 10.9 µM; in the assay with SK-MEL-5 melanoma it was 6.24 µM. For the same compound, the figures for the TGI in the assay with SNB-19 CNS and with U251 CNS were 10.7 µM and 3.84 µM, respectively.
For the compound `COc1ccc(-c2coc3cc(OC)cc(O)c3c2=O)cc1`, the TGI in the assay with A498 renal is 89.1 µM; with COLO 205 colon, above 100 µM; with HOP-92 NSCLC, 94.6 µM; with M14 melanoma, above 100 µM; in the assay on MCF7 breast, above 100 µM; in the assay with OVCAR-5 ovarian, above 100 µM. Also, the TGI in the assay with SK-MEL-28 melanoma, with SK-MEL-5 melanoma, in the assay on SNB-19 CNS and in the assay on U251 CNS was above 100 µM throughout.
As for `COc1ccc(Cn2c(Br)c3c(c2-c2cc(OC)c(OC)c(OC)c2)CCc2sc(NC(C)=O)nc2-3)cc1`, the GI50 is 2.5 µM in the assay on A498 renal; 2.53 µM with COLO 205 colon; 1.88 µM in the assay on HOP-92 NSCLC; 3.57 µM with M14 melanoma; 3.32 µM with MCF7 breast; 4.39 µM in the assay with OVCAR-5 ovarian. Besides, the GI50 with SK-MEL-28 melanoma was 5.09 µM; in the assay on SK-MEL-5 melanoma it was 2.82 µM; in the assay on SNB-19 CNS, above 100 µM; in the assay with U251 CNS it was 3.69 µM. The TGI with A498 renal is 9.58 µM; in the assay on COLO 205 colon, 5.78 µM; in the assay with HOP-92 NSCLC, 9.64 µM; in the assay on M14 melanoma it was above 100 µM; with MCF7 breast it was above 100 µM; with OVCAR-5 ovarian, above 100 µM. The TGI was above 100 µM in the assay on SK-MEL-28 melanoma, 21.4 µM with SK-MEL-5 melanoma, above 100 µM in the assay on SNB-19 CNS and above 100 µM in the assay with U251 CNS.
For the compound `COc1cc2c3c(c4c5ccccc5[nH]c4c2c(OC)c1OC)C(=O)N(CCN1CCCCC1)C3=O`, the GI50 in the assay with A498 renal was 1.35 µM; with COLO 205 colon, 0.849 µM; in the assay on HOP-92 NSCLC, 1.3 µM; in the assay on M14 melanoma, 1.82 µM; in the assay on MCF7 breast, 0.734 µM; in the assay on OVCAR-5 ovarian, 1.29 µM. In addition, the GI50 in the assay with SK-MEL-28 melanoma is 1.74 µM; with SK-MEL-5 melanoma, 1.88 µM; in the assay with SNB-19 CNS, 1.05 µM; in the assay on U251 CNS it was 1.12 µM. Also, the TGI was found to be 4.87 µM with A498 renal; 3.25 µM in the assay with COLO 205 colon; 5.21 µM in the assay with HOP-92 NSCLC; 4.25 µM with M14 melanoma; 3.09 µM in the assay with MCF7 breast; 3.05 µM in the assay on OVCAR-5 ovarian. Also, the TGI in the assay with SK-MEL-28 melanoma is 3.32 µM; in the assay with SK-MEL-5 melanoma, 5.31 µM; in the assay with SNB-19 CNS, 2.42 µM; with U251 CNS, 2.49 µM.
In the case of `CNC1C(OC2C(OC3C(O)C(O)C(O)C(O)C3O)OC(C)C2(O)CO)OC(CO)C(O)C1O` (stereo unspecified) (tested in a mixture with another compound), the TGI in the assay on A498 renal, with COLO 205 colon, in the assay on HOP-92 NSCLC, with M14 melanoma, in the assay with MCF7 breast and with OVCAR-5 ovarian was above 100 µM each time. For the same compound, the TGI with SK-MEL-28 melanoma, with SK-MEL-5 melanoma, with SNB-19 CNS and with U251 CNS was above 100 µM in each case.

(Values after PubChem BioAssay (NCI).)
